Laboratory results: patent US20120277161A1, “INHIBITION OF MULTIPLE CELL ACTIVATION PATHWAYS” (INTER-K PTY LIMITED, priority 2009, published 2012)

What was measured:
PI3K beta = PI3K beta (Homo sapiens, UniProt P42338); assay: PI3K HTRF activity assay; format: biochemical; conditions: dendrimer conc. 1 μM; read-out: Percentage (%) kinase inhibition PI3K P110β
Protocol: (§1) In a final reaction volume of 20 μL, the test PI3K is incubated in assay buffer containing 10 μM phosphatidylinositol-4,5-bisphosphate and MgATP. The reaction is initiated by the addition of the MgATP mix. After incubation for 30 minutes at room temperature, the reaction is stopped by the addition of 5 μL of stop solution containing EDTA and biotinylated phosphatidylinositol-3,4,5-trisphosphate. Finally, 5 μL of detection buffer is added (containing europium-labelled anti-GST monoclonal antibody, GST-tagged GRP1 PH domain and streptavidin-allophycocyanin). The test plate is then read in time-resolved fluorescence mode and the homogenous time-resolved fluorescence (HTRF) signal is determined according to the formula HTRF=10000×(Em665 nm/Em620 nm).

PI3K P110δ = PI3K P110δ (Homo sapiens, UniProt O00329); assay: PI3K HTRF activity assay; format: biochemical; conditions: dendrimer conc. 1 μM; read-out: Percentage (%) kinase inhibition PI3K P110δ
Protocol: as §1

PKB beta = PKB beta (Homo sapiens, UniProt P31751); assay: PKB kinase activity assay; format: biochemical; conditions: dendrimer conc. 1 μM; read-out: Percentage (%) kinase inhibition PKB beta
Protocol: (§2) In a final reaction volume of 25 μL, PKB(h) (5-10 mU) is incubated with 8 mM MOPS pH 7.0, 0.2 mM EDTA, 30 μM GRPRTSSFAEGKK (SEQ ID No. 26), 10 mM MgAcetate and [γ-33P-ATP] (specific activity approx. 500 cpm/pmol, concentration as required). The reaction is initiated by the addition of the MgATP mix. After incubation for 40 minutes at room temperature, the reaction is stopped by the addition of 5 μL of a 3% phosphoric acid solution. 10 μL of the reaction mixture is then spotted onto a P30 filtermat and washed three times for 5 minutes in 75 mM phosphoric acid and once in methanol prior to drying and scintillation counting.

PKB gamma = PKB gamma (Homo sapiens, UniProt Q9Y243); assay: PKB kinase activity assay; format: biochemical; conditions: dendrimer conc. 1 μM; read-out: Percentage (%) kinase inhibition PKB gamma
Protocol: as §2

c-RAF (h) = c-RAF (h) (Homo sapiens, UniProt P04049); assay: c-RAF kinase activity assay; format: biochemical; conditions: dendrimer conc. 1 μM; read-out: Percentage (%) kinase inhibition c-RAF
Protocol: as §2, with “c-RAF (h)” for “PKB(h)”, “25” for “8”, “Tris” for “MOPS”, “7.5, 0.02” for “7.0, 0.2”, “EGTA, 0.66 mg/mL myelin basic protein,” for “EDTA, 30 μM GRPRTSSFAEGKK (SEQ ID No. 26),”, “reaction” for “reaction mixture”

PKC beta I = PKC beta I (Homo sapiens, UniProt P05771); assay: PKC kinase activity assay; format: biochemical; conditions: dendrimer conc. 1 μM; read-out: Percentage (%) kinase inhibition PKC beta I
Protocol: (§3) In a final reaction volume of […] PKC kinase (h) (5-10 mU) is incubated with 20 mM HEPES pH 7.4, 0.03% Triton X-100, […], 0.1 mg/mL phosphatidylserine, 10 μg/mL diacylglycerol, 0.1 mg/mL histone H1 or 50 μM of the peptide ERMRPRKRQGSVRRRV (SEQ ID No. 20), 10 mM MgAcetate and [γ-33P-ATP] (specific activity approx. 500 cpm/pmol, concentration as required). The reaction is initiated by the addition of the MgATP mix. After incubation for 40 minutes at room temperature, the reaction is stopped by the addition of 5 μL of a 3% phosphoric acid solution. 10 μL of the reaction is then spotted onto a P30 filtermat and washed three times for 5 minutes in 75 mM phosphoric acid and once in methanol prior to drying and scintillation counting.

PKC beta II = PKC beta II (Homo sapiens, UniProt P05771); assay: PKC kinase activity assay; format: biochemical; conditions: dendrimer conc. 1 μM; read-out: Percentage (%) kinase inhibition PKC beta II
Protocol: as §3

PKC alpha = PKC alpha (Homo sapiens, UniProt P17252); assay: PKC kinase activity assay; format: biochemical; conditions: dendrimer conc. 1 μM; read-out: Percentage (%) kinase inhibition PKC alpha
Protocol: as §3

MEK1 (h) = MEK1 (h) (Homo sapiens, UniProt Q02750); assay: MEK1 kinase activity assay; format: biochemical; conditions: dendrimer conc. 1 μM; read-out: Percentage (%) kinase inhibition MEK1
Protocol: The reaction is initiated by the addition of the MgATP. After incubation for 40 minutes at room temperature, 5 μL of this incubation mix is used to initiate an ERK2 (m) assay.

[1] = system: ADDP human ovarian carcinoma cell line; assay: Cell proliferation (MTT) assay, ADDP cells; format: cell-based
Protocol: (§4) 6.1 Cell Proliferation (MTT) Assay Single cell suspensions of viable trypsinised cells were seeded into 96-well tissue culture plates at a density of 2×10^3 cells per well in a volume of 100 μl of a suitable culture media supplemented with heat inactivated foetal calf serum (FCS) (e.g., Dulbecco's Modified Eagles Medium (DMEM), with 10% v/v FCS, 1% L-glutamine, 2% (v/v) Hepes, and antibiotics). A set of triplicate wells was prepared for each concentration of the peptide dendrimer being tested. Additional sample wells containing untreated cells or media alone were set up in each treatment plate and processed in parallel as reference controls. A zero-time plate of untreated cells and media-alone wells was simultaneously prepared and an MTT assay carried out on this plate at the time of addition of the kinase inhibitor (i.e., polypeptide or dendrimer) to treatment plates. All plates were cultured for 24 hours before addition of the test dendrimer.
(§5) To prepare the MTT solution 100 mg of MTT (3-(4,5-dimethylthiazolyl-2)-2,5-diphenyltetrazolium bromide) (Cat #. M-128, Sigma, St Louis Mo.), is mixed with 20 ml of PBS at pH 7.4. The resulting solution is filter sterilized (0.2 μM syringe filter) and stored at 4° C. protected from light until use. MTT substrate is cleaved in growing cells to yield a water insoluble salt. After solubilisation of the salt crystals, a coloured product is produced the measurement of which allows quantitation of the proliferative activity of the cultured cells.
(§6) Appropriate concentrations of the kinase inhibitor were prepared by dilution of freshly prepared sterile 1 mM stock solutions into cell culture media to give a final well volume of 200 μl containing 10% v/v FCS. The zero-plate was processed by addition of MTT at this time. Cell culture was continued for a further 24 or 48 hours before addition of 20 μl of MTT in PBS (5 mg/ml, 0.2 um filter sterilised). The MTT cell proliferation assay measures cell proliferation rate and, in instances where cell viability is compromised, the assay indicates a comparative reduction in cell viability. After a 3 hour incubation in the presence of MTT (5% CO2 in air at 37° C.), plates were centrifuged at 450 g for 5 minutes, supernatant was removed by gentle suction and precipitated tetrazolium salt resuspended into 150 μl DMSO:glycine (0.1M glycine, 0.1M NaCl pH 10.5) (6:1 v/v) solution. Plates were gently vortexed to complete solubilisation of crystalline material and absorbance was read at 550 nm using a microplate reader. Sample data were processed to determine the comparative growth of treated samples relative to untreated controls.

[2] = system: HT29 human colon cancer cells; assay: Cell proliferation (MTT) assay, HT29 cells; format: cell-based
Protocol: as §4, §5, §6
HT29 cells were cultured for 48 hours in the presence of selected dendrimers and proliferation of the cells was assessed by MTT assay essentially as described in Example 6.1. The results were calculated as percentage proliferation of control cells (not treated with dendrimer).

PKB beta, sequence (P31751 whole entry): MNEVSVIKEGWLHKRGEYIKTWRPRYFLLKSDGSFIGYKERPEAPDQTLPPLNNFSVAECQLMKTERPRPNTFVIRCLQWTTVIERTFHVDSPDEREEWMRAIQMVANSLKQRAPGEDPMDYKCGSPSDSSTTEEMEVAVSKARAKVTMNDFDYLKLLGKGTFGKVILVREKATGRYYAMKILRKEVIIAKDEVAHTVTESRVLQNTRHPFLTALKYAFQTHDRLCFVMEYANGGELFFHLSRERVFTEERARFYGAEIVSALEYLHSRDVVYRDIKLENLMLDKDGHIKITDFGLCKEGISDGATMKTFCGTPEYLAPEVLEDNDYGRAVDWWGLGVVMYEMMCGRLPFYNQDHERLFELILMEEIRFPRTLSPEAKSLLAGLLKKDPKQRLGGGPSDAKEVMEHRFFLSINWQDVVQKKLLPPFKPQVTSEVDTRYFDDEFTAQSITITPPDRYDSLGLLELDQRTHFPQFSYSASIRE
PKB gamma, sequence (Q9Y243 whole entry): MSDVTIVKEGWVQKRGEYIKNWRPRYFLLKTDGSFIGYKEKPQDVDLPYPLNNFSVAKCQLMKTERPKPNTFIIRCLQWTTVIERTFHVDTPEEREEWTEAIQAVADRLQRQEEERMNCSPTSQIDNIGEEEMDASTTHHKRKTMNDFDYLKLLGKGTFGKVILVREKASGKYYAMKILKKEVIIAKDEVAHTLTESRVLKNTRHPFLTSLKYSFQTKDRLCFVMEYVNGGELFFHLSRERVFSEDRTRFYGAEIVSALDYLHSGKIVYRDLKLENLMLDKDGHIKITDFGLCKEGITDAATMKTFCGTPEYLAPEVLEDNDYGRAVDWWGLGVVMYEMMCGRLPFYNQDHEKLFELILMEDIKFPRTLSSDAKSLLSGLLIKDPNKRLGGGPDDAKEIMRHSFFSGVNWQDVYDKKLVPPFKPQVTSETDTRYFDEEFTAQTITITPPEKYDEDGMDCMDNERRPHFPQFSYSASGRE
PI3K P110δ, sequence (O00329 whole entry): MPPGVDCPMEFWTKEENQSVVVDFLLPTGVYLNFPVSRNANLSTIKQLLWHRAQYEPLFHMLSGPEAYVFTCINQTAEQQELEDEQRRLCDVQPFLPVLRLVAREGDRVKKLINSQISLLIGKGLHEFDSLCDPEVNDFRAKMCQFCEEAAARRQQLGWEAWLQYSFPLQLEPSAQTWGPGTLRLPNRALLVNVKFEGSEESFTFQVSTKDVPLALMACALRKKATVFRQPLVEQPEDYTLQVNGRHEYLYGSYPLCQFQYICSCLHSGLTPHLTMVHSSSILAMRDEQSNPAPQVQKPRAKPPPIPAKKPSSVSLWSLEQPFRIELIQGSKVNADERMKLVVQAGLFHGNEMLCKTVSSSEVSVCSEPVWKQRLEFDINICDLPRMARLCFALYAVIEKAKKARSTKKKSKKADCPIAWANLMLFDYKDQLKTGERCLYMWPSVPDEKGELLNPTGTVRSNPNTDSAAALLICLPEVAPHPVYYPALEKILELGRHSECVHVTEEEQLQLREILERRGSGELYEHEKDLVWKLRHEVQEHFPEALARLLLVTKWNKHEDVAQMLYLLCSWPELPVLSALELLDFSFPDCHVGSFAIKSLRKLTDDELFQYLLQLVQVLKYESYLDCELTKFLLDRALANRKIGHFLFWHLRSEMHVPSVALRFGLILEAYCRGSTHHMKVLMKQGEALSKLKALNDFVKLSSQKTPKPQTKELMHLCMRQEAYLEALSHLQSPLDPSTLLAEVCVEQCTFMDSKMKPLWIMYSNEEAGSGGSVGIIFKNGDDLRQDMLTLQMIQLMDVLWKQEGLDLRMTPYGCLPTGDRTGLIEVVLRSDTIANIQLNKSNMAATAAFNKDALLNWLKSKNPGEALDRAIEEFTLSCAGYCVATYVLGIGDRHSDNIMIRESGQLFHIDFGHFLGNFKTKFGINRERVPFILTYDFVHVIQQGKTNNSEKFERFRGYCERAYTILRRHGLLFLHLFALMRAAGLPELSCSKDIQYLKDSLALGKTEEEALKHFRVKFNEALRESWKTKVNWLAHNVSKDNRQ
PI3K P110δ, sequence (P27986 whole entry partner): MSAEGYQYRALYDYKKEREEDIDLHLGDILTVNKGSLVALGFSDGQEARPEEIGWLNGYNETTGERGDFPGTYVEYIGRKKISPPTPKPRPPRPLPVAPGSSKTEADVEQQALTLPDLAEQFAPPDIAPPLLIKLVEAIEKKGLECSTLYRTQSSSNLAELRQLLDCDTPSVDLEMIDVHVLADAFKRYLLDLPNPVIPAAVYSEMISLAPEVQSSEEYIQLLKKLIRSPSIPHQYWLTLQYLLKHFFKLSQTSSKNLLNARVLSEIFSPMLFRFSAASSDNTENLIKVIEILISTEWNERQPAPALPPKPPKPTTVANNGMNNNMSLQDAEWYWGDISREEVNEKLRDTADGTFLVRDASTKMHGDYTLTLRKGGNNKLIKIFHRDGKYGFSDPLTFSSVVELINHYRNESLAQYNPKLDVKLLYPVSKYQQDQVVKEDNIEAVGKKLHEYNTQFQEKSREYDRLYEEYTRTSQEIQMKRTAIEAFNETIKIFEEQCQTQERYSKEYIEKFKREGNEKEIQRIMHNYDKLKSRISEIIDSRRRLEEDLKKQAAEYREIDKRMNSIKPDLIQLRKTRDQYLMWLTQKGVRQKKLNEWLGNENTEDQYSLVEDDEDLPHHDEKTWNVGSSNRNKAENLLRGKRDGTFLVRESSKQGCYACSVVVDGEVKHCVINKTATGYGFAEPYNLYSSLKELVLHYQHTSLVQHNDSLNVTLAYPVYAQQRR
PKC beta II, sequence (P05771 1-673 isoform P05771-2): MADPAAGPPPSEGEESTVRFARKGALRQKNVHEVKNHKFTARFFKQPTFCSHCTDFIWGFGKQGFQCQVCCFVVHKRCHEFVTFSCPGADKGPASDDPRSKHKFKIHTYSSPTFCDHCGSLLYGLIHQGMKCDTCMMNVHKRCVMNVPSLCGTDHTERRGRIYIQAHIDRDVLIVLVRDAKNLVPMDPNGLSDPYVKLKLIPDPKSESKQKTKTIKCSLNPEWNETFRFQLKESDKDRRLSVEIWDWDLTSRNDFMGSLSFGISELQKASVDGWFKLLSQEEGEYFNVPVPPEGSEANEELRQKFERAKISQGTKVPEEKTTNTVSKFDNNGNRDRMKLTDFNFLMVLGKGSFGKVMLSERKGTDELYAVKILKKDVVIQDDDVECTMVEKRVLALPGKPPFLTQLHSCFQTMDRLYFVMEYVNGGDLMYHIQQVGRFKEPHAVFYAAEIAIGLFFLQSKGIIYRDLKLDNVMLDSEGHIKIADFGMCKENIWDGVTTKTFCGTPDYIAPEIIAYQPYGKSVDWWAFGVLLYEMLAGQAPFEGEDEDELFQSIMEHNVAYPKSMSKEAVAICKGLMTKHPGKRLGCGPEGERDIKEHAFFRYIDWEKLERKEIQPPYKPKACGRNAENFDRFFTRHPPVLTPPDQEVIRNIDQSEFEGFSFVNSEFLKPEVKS
PI3K beta, sequence (P42338 whole entry, species assumed, the tested form may be a part): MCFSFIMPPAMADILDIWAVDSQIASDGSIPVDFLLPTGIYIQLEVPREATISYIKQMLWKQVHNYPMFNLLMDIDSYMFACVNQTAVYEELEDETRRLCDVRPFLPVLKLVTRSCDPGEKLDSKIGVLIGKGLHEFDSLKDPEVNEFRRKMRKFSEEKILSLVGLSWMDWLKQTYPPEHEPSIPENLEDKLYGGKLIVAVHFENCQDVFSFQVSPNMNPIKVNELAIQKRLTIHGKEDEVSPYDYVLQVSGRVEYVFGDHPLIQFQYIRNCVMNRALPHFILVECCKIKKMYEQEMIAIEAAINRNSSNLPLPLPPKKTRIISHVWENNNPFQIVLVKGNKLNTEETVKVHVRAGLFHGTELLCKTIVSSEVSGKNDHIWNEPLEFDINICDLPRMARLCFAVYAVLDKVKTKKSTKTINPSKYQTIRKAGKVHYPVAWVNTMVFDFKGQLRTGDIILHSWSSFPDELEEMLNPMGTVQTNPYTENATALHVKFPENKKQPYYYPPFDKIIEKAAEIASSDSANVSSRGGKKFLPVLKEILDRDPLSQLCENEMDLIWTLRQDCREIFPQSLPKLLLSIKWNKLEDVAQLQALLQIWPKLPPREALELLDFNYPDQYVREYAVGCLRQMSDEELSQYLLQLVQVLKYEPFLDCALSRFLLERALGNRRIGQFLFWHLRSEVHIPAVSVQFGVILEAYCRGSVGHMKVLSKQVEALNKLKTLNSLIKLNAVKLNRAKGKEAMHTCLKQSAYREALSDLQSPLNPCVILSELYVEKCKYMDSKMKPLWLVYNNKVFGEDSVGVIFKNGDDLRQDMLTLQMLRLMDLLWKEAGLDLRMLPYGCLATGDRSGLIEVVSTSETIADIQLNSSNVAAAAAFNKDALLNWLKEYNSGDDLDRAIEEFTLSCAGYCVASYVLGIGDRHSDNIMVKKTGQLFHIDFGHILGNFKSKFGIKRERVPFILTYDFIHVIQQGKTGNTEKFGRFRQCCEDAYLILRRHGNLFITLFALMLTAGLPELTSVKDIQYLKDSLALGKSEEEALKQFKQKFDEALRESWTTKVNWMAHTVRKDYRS
PI3K beta, sequence (P27986 whole entry partner, species assumed, the tested form may be a part): as the sequence (P27986 whole entry partner) above
MEK1 (h), sequence (Q02750 whole entry): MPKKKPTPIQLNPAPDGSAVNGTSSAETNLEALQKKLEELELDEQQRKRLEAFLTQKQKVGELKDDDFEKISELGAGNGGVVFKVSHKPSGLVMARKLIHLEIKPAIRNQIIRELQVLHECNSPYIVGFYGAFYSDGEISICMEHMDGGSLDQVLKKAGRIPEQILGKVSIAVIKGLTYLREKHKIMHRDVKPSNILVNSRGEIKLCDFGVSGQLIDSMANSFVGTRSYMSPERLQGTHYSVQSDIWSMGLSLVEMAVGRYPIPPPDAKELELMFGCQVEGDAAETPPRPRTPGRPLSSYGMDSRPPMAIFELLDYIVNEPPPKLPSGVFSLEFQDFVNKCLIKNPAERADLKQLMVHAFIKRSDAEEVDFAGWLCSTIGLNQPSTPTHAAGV

Which results are given for `CC(C)C[C@@H](NC(=O)[C@H]1CCCN1C(=O)[C@@H](CC(N)=O)NC(=O)[C@@H](CCCNC(=N)N)NC(=O)[C@@H](C)NC(=O)[C@@H](CCCNC(=N)N)NC(=O)[C@@H](CO)NC(=O)[C@H](N)CCCNC(=N)N)C(=O)N[C@H](Cc1ccc(O)cc1)C(=O)N[C@H](CCCNC(=N)N)C(=O)NCCCC[C@H](NC(=O)[C@H](CCCCNC(=O)[C@H](CCCCNC(=O)[C@@H](CCCNC(=N)N)NC(=O)[C@@H](Cc1ccc(O)cc1)NC(=O)[C@@H](CC(C)C)NC(=O)[C@H]1CCCN1C(=O)[C@@H](CC(N)=O)NC(=O)[C@@H](CCCNC(=N)N)NC(=O)[C@@H](C)NC(=O)[C@@H](CCCNC(=N)N)NC(=O)[C@@H](CO)NC(=O)[C@H](N)CCCNC(=N)N)NC(=O)[C@@H](CCCNC(=N)N)NC(=O)[C@@H](Cc1ccc(O)cc1)NC(=O)[C@@H](CC(C)C)NC(=O)[C@H]1CCCN1C(=O)[C@@H](CC(N)=O)NC(=O)[C@@H](CCCNC(=N)N)NC(=O)[C@@H](C)NC(=O)[C@@H](CCCNC(=N)N)NC(=O)[C@@H](CO)NC(=O)[C@H](N)CCCNC(=N)N)NC(=O)[C@H](CCCCNC(=O)[C@@H](CCCNC(=N)N)NC(=O)[C@@H](Cc1ccc(O)cc1)NC(=O)[C@@H](CC(C)C)NC(=O)[C@H]1CCCN1C(=O)[C@@H](CC(N)=O)NC(=O)[C@@H](CCCNC(=N)N)NC(=O)[C@@H](C)NC(=O)[C@@H](CCCNC(=N)N)NC(=O)[C@@H](CO)NC(=O)[C@H](N)CCCNC(=N)N)NC(=O)[C@@H](CCCNC(=N)N)NC(=O)[C@@H](Cc1ccc(O)cc1)NC(=O)[C@@H](CC(C)C)NC(=O)[C@H]1CCCN1C(=O)[C@@H](CC(N)=O)NC(=O)[C@@H](CCCNC(=N)N)NC(=O)[C@@H](C)NC(=O)[C@@H](CCCNC(=N)N)NC(=O)[C@@H](CO)NC(=O)[C@H](N)CCCNC(=N)N)C(=O)NCCCC[C@H](NC(=O)[C@H](CCCCNC(=O)[C@@H](CCCNC(=N)N)NC(=O)[C@@H](Cc1ccc(O)cc1)NC(=O)[C@@H](CC(C)C)NC(=O)[C@H]1CCCN1C(=O)[C@@H](CC(N)=O)NC(=O)[C@@H](CCCNC(=N)N)NC(=O)[C@@H](C)NC(=O)[C@@H](CCCNC(=N)N)NC(=O)[C@@H](CO)NC(=O)[C@H](N)CCCNC(=N)N)NC(=O)[C@H](CCCCNC(=O)[C@H](CCCCNC(=O)[C@@H](CCCNC(=N)N)NC(=O)[C@@H](Cc1ccc(O)cc1)NC(=O)[C@@H](CC(C)C)NC(=O)[C@H]1CCCN1C(=O)[C@@H](CC(N)=O)NC(=O)[C@@H](CCCNC(=N)N)NC(=O)[C@@H](C)NC(=O)[C@@H](CCCNC(=N)N)NC(=O)[C@@H](CO)NC(=O)[C@H](N)CCCNC(=N)N)NC(=O)[C@@H](CCCNC(=N)N)NC(=O)[C@@H](Cc1ccc(O)cc1)NC(=O)[C@@H](CC(C)C)NC(=O)[C@H]1CCCN1C(=O)[C@@H](CC(N)=O)NC(=O)[C@@H](CCCNC(=N)N)NC(=O)[C@@H](C)NC(=O)[C@@H](CCCNC(=N)N)NC(=O)[C@@H](CO)NC(=O)[C@H](N)CCCNC(=N)N)NC(=O)[C@H](CCCCNC(=O)[C@@H](CCCNC(=N)N)NC(=O)[C@@H](Cc1ccc(O)cc1)NC(=O)[C@@H](CC(C)C)NC(=O)[C@H]1CCCN1C(=O)[C@@H](CC(N)=O)NC(=O)[C@@H](CCCNC(=N)N)NC(=O)[C@@H](C)NC(=O)[C@@H](CCCNC(=N)N)NC(=O)[C@@H](CO)NC(=O)[C@H](N)CCCNC(=N)N)NC(=O)[C@@H](CCCNC(=N)N)NC(=O)[C@@H](Cc1ccc(O)cc1)NC(=O)[C@@H](CC(C)C)NC(=O)[C@H]1CCCN1C(=O)[C@@H](CC(N)=O)NC(=O)[C@@H](CCCNC(=N)N)NC(=O)[C@@H](C)NC(=O)[C@@H](CCCNC(=N)N)NC(=O)[C@@H](CO)NC(=O)[C@H](N)CCCNC(=N)N)C(=O)NCCC(N)=O`?
inhibition at 1 µM (PI3K beta): 24%; inhibition at 1 µM (PI3K P110δ): 61%; inhibition at 1 µM (PKB beta): 87%; inhibition at 1 µM (PKB gamma): 97%; inhibition at 1 µM (c-RAF (h)): 85%; inhibition at 1 µM (PKC beta I): 79%; inhibition at 1 µM (PKC beta II): 77%; inhibition at 1 µM (PKC alpha): 53%; inhibition at 1 µM (MEK1 (h)): 95%

AAVALLPAVLLALLARSKAKNPLYR [IK2] was tested. Which “observed inhibition in combination with oxaliplatin versus calculated additive effect, ADDP cells” value ([1]; 5 μM or 10 μM IK2 peptide, FIGS. 7A, 7B) did it give?
Its value is “synergistic outcome”.

What about the “effect in combination with cisplatin versus calculated additive effect, ADDP cells” value ([1]; 30 μM IK2 peptide, FIG. 8) of the same compound?
The value was “synergistic effect”.

What about the “inhibition of the growth of ADDP cancer cells in combination with cisplatin” value ([1]; compared to cisplatin or IK2 alone, FIG. 6) of the same compound?
The value was “high level inhibition of the growth”.

And the “inhibition of the growth of ADDP cancer cells in combination with oxaliplatin” value ([1]; compared to oxaliplatin or IK2 alone)?
The value was “high level inhibition of the growth”.

What about the “effect in combination with cisplatin versus calculated additive effect, HT29 cells” value ([2]; 30 μM IK2 peptide, FIG. 9) of the same compound?
The value was “synergistic effect”.

Which IC50 ([2]; MTT, 48 hours) does the source give for “dendrimer presenting 12 monomer units of the peptide RSKAKNPLYR [Dend 12-10(4)]” here?
The IC50 was 1000 nM.

And the “dendrimer concentration required for total kill, HT29 cells” value ([2]; MTT, 48 hours)?
The value was 10 µM.

And the “inhibition of proliferation of HT29 cells” value ([2]; MTT, 48 hours)?
Its value is “more effective than Dend 9-10(4)”.
